Assay results as given in ChEMBL document CHEMBL4270506, “Recent advances in drug discovery of phototherapeutic non-porphyrinic anticancer agents” (Eur J Med Chem, 2017).

Columns and labels:
SK-OV-3 = test: Phototoxicity in human SKOV3 cells assessed as reduction in cell viability in presence of irradiation with green lED light at 25.2 J/cm2 for 2 hrs followed by incubation in dark for 24 hrs by MTT assay; format: functional, cell-based; conditions: SK-OV-3, light or radiation study
[1] = Dark toxicity in mouse DLA cells assessed as inhibition of cell viability by trypan blue dye exclusion method; format: cell-based; conditions: read-out: INH
[2] = Phototoxicity in mouse DLA cells assessed as inhibition of cell viability illuminated for 10 mins at total dose of 46 J/cm2 irradiation by trypan blue dye exclusion method; format: functional
[3] = Dark toxicity in human […] cells assessed as cell viability at 50 ug/ml by CCK8 assay; format: cell-based; conditions: read-out: Activity
[4] = Phototoxicity in human […] cells assessed as cell viability at 5 ug/ml under irradiation at 532 nm by CCK8 assay; format: functional; conditions: light or radiation study, read-out: Activity
[5] = Dark toxicity in human LoVo cells assessed as reduction in cell viability after 72 hrs by MTT assay; format: cell-based
LoVo = test: Phototoxicity in human LoVo cells assessed as cell viability at 2 to 8 umol/L pre-incubated for 30 mins before irradiation at 365 nm at 3.75 J/cm2 and measured after 72 hrs by MTT assay; format: functional; conditions: light or radiation study
[6] = Dark toxicity in human Jurkat cells assessed as reduction in cell viability after 72 hrs by MTT assay; format: cell-based
Jurkat = test: Phototoxicity in human Jurkat cells assessed as cell viability at 2 to 8 umol/L pre-incubated for 30 mins before irradiation at 365 nm at 3.75 J/cm2 and measured after 72 hrs by MTT assay; format: functional; conditions: light or radiation study
[7] = Dark toxicity in human K562 cells assessed as reduction in cell viability after 72 hrs by MTT assay; format: cell-based
K562 = test: Phototoxicity in human K562 cells assessed as cell viability at 2 to 8 umol/L pre-incubated for 30 mins before irradiation at 365 nm at 3.75 J/cm2 and measured after 72 hrs by MTT assay; format: functional; conditions: K562, light or radiation study
[8] = Dark toxicity in human A431 cells assessed as reduction in cell viability after 72 hrs by MTT assay; format: cell-based, A-431
A-431 = test: Phototoxicity in human A431 cells assessed as cell viability at 2 to 8 umol/L pre-incubated for 30 mins before irradiation at 365 nm at 3.75 J/cm2 and measured after 72 hrs by MTT assay; format: functional; conditions: A-431, light or radiation study
[9] = Dark toxicity in human […] cells assessed as cell viability at 10 ug/ml by CCK8 assay; format: cell-based; conditions: read-out: Activity
[10] = Phototoxicity in human […] cells assessed as cell viability at 10 ug/ml under irradiation at 457 nm at 20 J/cm2 by CCK8 assay; format: functional; conditions: light or radiation study, read-out: Activity
[11] = Lipophilicity, log P of the compound; format: physicochemical; conditions: octanol/water
[12] = Dark toxicity in human BxPC3 cells assessed as inhibition of cell growth at 6.25 to 25 uM incubated for 24 hrs by MTT assay; format: cell-based, BXPC-3; conditions: read-out: GI
BXPC-3 [13] = test: Phototoxicity in human BxPC3 cells assessed as inhibition of cell growth at 6.25 uM pre-incubated for 3 hrs before irradiation with 780 nm light for 1 mins and measured after 24 hrs by MTT assay; format: functional; conditions: BXPC-3, light or radiation study, read-out: GI
BXPC-3 [14] = test: Phototoxicity in human BxPC3 cells assessed as inhibition of cell growth at 12.5 uM pre-incubated for 3 hrs before irradiation with 780 nm light for 1 mins and measured after 24 hrs by MTT assay; format: functional; conditions: BXPC-3, light or radiation study, read-out: GI
BXPC-3 [15] = test: Phototoxicity in human BxPC3 cells assessed as inhibition of cell growth at 25 uM pre-incubated for 3 hrs before irradiation with 780 nm light for 1 mins and measured after 24 hrs by MTT assay; format: functional; conditions: BXPC-3, light or radiation study, read-out: GI
[16] = Dark toxicity in human MIAPaCa2 cells assessed as inhibition of cell growth at 6.25 to 25 uM incubated for 24 hrs by MTT assay; format: cell-based, MIA PaCa-2; conditions: read-out: GI
MIA PaCa-2 [17] = test: Phototoxicity in human MIAPaCa2 cells assessed as inhibition of cell growth at 6.25 uM pre-incubated for 3 hrs before irradiation with 780 nm light for 1 mins and measured after 24 hrs by MTT assay; format: functional; conditions: MIA PaCa-2, light or radiation study, read-out: GI
MIA PaCa-2 [18] = test: Phototoxicity in human MIAPaCa2 cells assessed as inhibition of cell growth at 12.5 uM pre-incubated for 3 hrs before irradiation with 780 nm light for 1 mins and measured after 24 hrs by MTT assay; format: functional; conditions: MIA PaCa-2, light or radiation study, read-out: GI
MIA PaCa-2 [19] = test: Phototoxicity in human MIAPaCa2 cells assessed as inhibition of cell growth at 25 uM pre-incubated for 3 hrs before irradiation with 780 nm light for 1 mins and measured after 24 hrs by MTT assay; format: functional; conditions: MIA PaCa-2, light or radiation study, read-out: GI

Structure (SMILES): CC1=C(I)C(C)=[N+]2C1=Cc1c(C)c(I)c(C)n1[B-]2(F)F
- EC50 (SK-OV-3): 28.8 nM

Structure (SMILES): CC(C)c1ccc(C2=C([O-])/C(=C\c3sc4cc(I)ccc4[n+]3CCCCS(=O)(=O)O)C2=O)cc1
- cytotoxicity [1]: < 10%
- inhibition (INH) [2]: 80%

Structure (SMILES): CCN(CC)c1ccc(/C=C2\CC/C(=C\c3ccc(N(CCC(=O)O)CCC(=O)O)cc3)C2=O)cc1
- viability at 50 ug/ml [3]: > 70%
- viability at 5 µg/mL [4]: > 80%

Structure (SMILES): CCOC(=O)c1cc2c(n1Cc1ccc(C)cc1)-c1nc(N)ncc1CC2
- GI50 at 72 h [5]: > 20000 nM
- GI50 (LoVo): 340 nM
- GI50 at 72 h [6]: > 20000 nM
- GI50 (Jurkat): 230 nM
- GI50 at 72 h [7]: > 20000 nM
- GI50 (K562): 410 nM
- GI50 at 72 h [8]: > 20000 nM
- GI50 (A-431): 260 nM

Structure (SMILES): COCCOCCOCCOCCN(CCOCCOCCOCCOC)c1ccc(/C=C2\CC/C(=C\c3ccc(N(CCOCCOCCOCCOC)CCOCCOCCOCCOC)cc3)C2=O)cc1
- viability at 10 ug/ml [9]: > 80%
- viability at 10 µg/mL [10]: > 60%
- logP [11]: 2.32 to 3.04

Structure (SMILES): CC1(C)C(/C=C/C2=C(Cl)C(=C/C=C3/N(CCCCS(=O)(=O)O)c4cc(I)cc(I)c4C3(C)C)/CCC2)=[N+](CCCCS(=O)(=O)O)c2cc(I)cc(I)c21
- inhibition at 24 h, up to 25 µM [12]: 0%
- inhibition of growth at 6.25 µM (BXPC-3 [13]): > 10%
- inhibition of growth at 12.5 µM (BXPC-3 [14]): > 20%
- inhibition of growth at 25 µM (BXPC-3 [15]): 40%
- inhibition at 24 h, up to 25 µM [16]: 0%
- inhibition of growth at 6.25 µM (MIA PaCa-2 [17]): 20%
- inhibition of growth at 12.5 µM (MIA PaCa-2 [18]): > 40%
- inhibition of growth at 25 µM (MIA PaCa-2 [19]): 70%

Structure (SMILES): CN(CCC(=O)O)c1ccc(/C=C2\CC/C(=C\c3ccc(N(C)CCC(=O)O)cc3)C2=O)cc1
- viability at 50 ug/ml [3]: > 70%
- viability at 5 µg/mL [4]: > 80%

Structure (SMILES): CCN1/C(=C\C2=C([O-])C(=C\c3sc4cc(I)ccc4[n+]3CCCCS(=O)(=O)O)/C2=O)Sc2ccccc21
- cytotoxicity [1]: < 10%
- inhibition (INH) [2]: 95 - 100%

Structure (SMILES): CCOC(=O)c1cc2c(n1C)-c1nc(N)ncc1CC2
- GI50 at 72 h [5]: > 20000 nM
- GI50 (LoVo): > 20000 nM
- GI50 at 72 h [6]: > 20000 nM
- GI50 (Jurkat): 8420 nM
- GI50 at 72 h [7]: > 20000 nM
- GI50 (K562): > 20000 nM
- GI50 at 72 h [8]: > 20000 nM
- GI50 (A-431): > 20000 nM

Structure (SMILES): COCCOCCOCCOCCN(C)c1ccc(/C=C2\CC/C(=C\c3ccc(N(C)CCOCCOCCOCCOC)cc3)C2=O)cc1
- viability at 10 ug/ml [9]: > 80%
- viability at 10 µg/mL [10]: < 10%
- logP [11]: 2.32 to 3.04

Structure (SMILES): CC1=C(I)C(C)=[N+]2C1=C(c1c(Cl)cccc1Cl)c1c(C)c(I)c(C)n1[B-]2(F)F
- EC50 (SK-OV-3): 0.77 nM

Structure (SMILES): CCN(CC)c1ccc(/C=C2\CC/C(=C\c3ccc(N(C)CCC(=O)O)cc3)C2=O)cc1
- viability at 50 ug/ml [3]: < 30%
- viability at 5 µg/mL [4]: < 10%

Structure (SMILES): CCOC(=O)c1cc2c(n1Cc1ccccc1)-c1nc(N)ncc1CC2
- GI50 at 72 h [5]: 14200 nM
- GI50 (LoVo): 440 nM
- GI50 at 72 h [6]: 14000 nM
- GI50 (Jurkat): 210 nM
- GI50 at 72 h [7]: > 20000 nM
- GI50 (K562): 480 nM
- GI50 at 72 h [8]: > 20000 nM
- GI50 (A-431): 390 nM

Structure (SMILES): CC1=C(I)C(C)=[N+]2C1=C(c1ccc([N+](=O)[O-])cc1)c1c(C)c(I)c(C)n1[B-]2(F)F
- EC50 (SK-OV-3): 2.01 nM

Structure (SMILES): CCN(CC)c1ccc(/C=C2\CC/C(=C\c3ccc(N(CCOCCOCCOCCOC)CCOCCOCCOCCOC)cc3)C2=O)cc1
- viability at 10 ug/ml [9]: > 80%
- viability at 10 µg/mL [10]: 10%
- logP [11]: 2.32 to 3.04

Structure (SMILES): CCOC(=O)c1cc2c(n1C)-c1[nH]c(=O)ncc1CC2
- GI50 at 72 h [5]: > 20000 nM
- GI50 (LoVo): 2300 nM
- GI50 at 72 h [6]: 6000 nM
- GI50 (Jurkat): 1080 nM
- GI50 at 72 h [7]: > 20000 nM
- GI50 (K562): 2920 nM
- GI50 at 72 h [8]: > 20000 nM
- GI50 (A-431): 2450 nM

Structure (SMILES): O=C1C(/C=C2/Sc3cc(I)ccc3N2CCCCS(=O)(=O)O)=C([O-])C/1=C\c1sc2cc(I)ccc2[n+]1CCCCS(=O)(=O)O
- cytotoxicity [1]: < 10%
- inhibition (INH) [2]: 95 - 100%

Structure (SMILES): COc1ccc(C2=C3C(C)=C(I)C(C)=[N+]3[B-](F)(F)n3c(C)c(I)c(C)c32)cc1
- EC50 (SK-OV-3): 0.65 nM

Structure (SMILES): Cn1ccc2c1-c1[nH]c(=O)ncc1CC2
- GI50 at 72 h [5]: > 20000 nM
- GI50 (LoVo): > 20000 nM
- GI50 at 72 h [6]: > 20000 nM
- GI50 (Jurkat): > 20000 nM
- GI50 at 72 h [7]: > 20000 nM
- GI50 (K562): > 20000 nM
- GI50 at 72 h [8]: > 20000 nM
- GI50 (A-431): > 20000 nM

Structure (SMILES): COCCOCCOCCN(CCOCCOCCOC)c1ccc(/C=C2\CC/C(=C\c3ccc(N(CCOCCOCCOC)CCOCCOCCOC)cc3)C2=O)cc1
- viability at 10 ug/ml [9]: > 80%
- viability at 10 µg/mL [10]: 60%
- logP [11]: 2.32 to 3.04

Structure (SMILES): CC1(C)C(/C=C/C2=C(Cl)C(=C/C=C3/N(CCCCS(=O)(=O)O)c4ccc(I)cc4C3(C)C)/CCC2)=[N+](CCCCS(=O)(=O)O)c2ccc(I)cc21
- inhibition at 24 h, up to 25 µM [12]: 0%
- inhibition of growth at 6.25 µM (BXPC-3 [13]): > 10%
- inhibition of growth at 12.5 µM (BXPC-3 [14]): > 20%
- inhibition of growth at 25 µM (BXPC-3 [15]): 40%
- inhibition at 24 h, up to 25 µM [16]: 0%
- inhibition of growth at 6.25 µM (MIA PaCa-2 [17]): 30%
- inhibition of growth at 12.5 µM (MIA PaCa-2 [18]): > 60%
- inhibition of growth at 25 µM (MIA PaCa-2 [19]): > 80%

Structure (SMILES): O=C(O)CCN(CCC(=O)O)c1ccc(/C=C2\CC/C(=C\c3ccc(N(CCC(=O)O)CCC(=O)O)cc3)C2=O)cc1
- viability at 50 ug/ml [3]: > 70%
- viability at 5 µg/mL [4]: > 80%

Structure (SMILES): CC1=C(I)C(C)=[N+]2C1=C(c1ccncc1)c1c(C)c(I)c(C)n1[B-]2(F)F
- EC50 (SK-OV-3): 1.29 nM

Structure (SMILES): CC1(C)C(/C=C/C=C/C=C/C=C2\N(CCCCS(=O)(=O)O)c3ccc4ccccc4c3C2(C)C)=[N+](CCCCS(=O)(=O)[O-])c2ccc3ccccc3c21 [INDOCYANINE GREEN]
- inhibition at 24 h, up to 25 µM [12]: 0%
- inhibition of growth at 6.25 µM (BXPC-3 [13]): 0%
- inhibition of growth at 12.5 µM (BXPC-3 [14]): 0%
- inhibition of growth at 25 µM (BXPC-3 [15]): 0%
- inhibition at 24 h, up to 25 µM [16]: 0%
- inhibition of growth at 6.25 µM (MIA PaCa-2 [17]): 0%
- inhibition of growth at 12.5 µM (MIA PaCa-2 [18]): 0%
- inhibition of growth at 25 µM (MIA PaCa-2 [19]): 0%
